Assay results reported in patent publication US20160195533A1, “METHOD FOR SCREENING EMT INHIBITOR” (Medicinal Bioconvergence Research Center, priority 2015, published 2016).

What was measured:
[1] = test system: binding between EPRS and Snail1; assay: Endogenous immunoprecipitation of EPRS with Snail1 immunoblot in TGF-β1-treated cells; type: cell-based; settings: A549 cells, TGF-β1 0, 1, 10, 20 ng/ml for 48 hours, cytoplasm and nucleus fractions
Procedure: For the detection of endogenous EPRS interaction with Snail1 in nucleus and cytosol, the protein extracts were incubated with protein A agarose (Life technologies) for 30 minutes on ice, and then centrifuged to remove nonspecific IgG binding proteins. The pre-cleared supernatants were mixed with anti-EPRS antibody, incubated the mixture for 2 h at 4° C. with gentle agitation, added protein A agarose for 2 h, and centrifuged. After washing the precipitates with the cold lysis buffer 3-5 times, the precipitates were dissolved in the 2×SDS sample buffer and separated by SDS-PAGE.
The interaction between EPRS and Snail1 were verified at the endogenous level of cytoplasm and nucleus. A549 cells were treated with TGF-β1 of different concentrations (0, 1, 10, 20 ng/ml) for 48 hours, fractionated into the cytoplasm and the nucleus, and then subjected endo-IP using protein A-agarose beads (Invitrogen) and EPRS antibody.

A549 cells [2] = assay: Cell invasion assay (Matrigel invasion chamber) after EPRS knock-down; type: cell-based; settings: si-EPRS vs si-control, groups treated with and without TGF-β1 (10 ng/ml, 12 hours)
Procedure: Cell invasion assay using A549 cells were conducted in the Matrigel invasion chamber manufactured by BD Co. According to the manufacturer's protocol, the matrigel was rehydrated for two hours and 750 μl of the serum-free RPMI was located in a lower chamber. The A549 cells were trypsinized, and then centrifuged at 1,000 rpm for 5 minutes. The serum-free RPMI was added to the cells to prepare a suspension. Then, 1×10^5 cells were put in the upper chamber, and then incubated in a CO2 incubator at 37° C. for 12 hours. The membrane was washed two times with PBS, and the cells were fixed using PBS containing 70% methyl alcohol. Then, the membrane was washed three times with PBS, and then the cells were stained with hematoxylin (Sigma). The membrane was washed several times with distilled water, and then immobilized cells above were removed using cotton swabs. Then, the membrane was mounted on the Gel Mount (Biomeda). For counting moving cells, three randomly selected regions were magnified through the microscope. All samples were repeatedly tested three times.
Here, the groups treated with TGF-β1 were prepared by treatment at a concentration of 10 ng/ml for 12 hours.

A549 cells [3] = assay: Cell migration assay (Transwell) after EPRS knock-down; type: cell-based; settings: si-EPRS vs si-control, groups treated with and without TGF-β1 (10 ng/ml, 12 hours)
Procedure: Cell migration assays with A549 cells were performed in Transwell chambers ([…] pore, Costar). Fibronectin (10 μg/ml, BD Biosciences) was coated on the membrane and 700 μl serum-free RPMI was placed in the bottom chamber. After A549 cells were trypsinized and centrifuged at 1,000 rpm for 5 minutes, serum-free RPMI was added to the cells for suspension. Then, 1×10^5 cells were dropped into 24-well Transwell chambers and incubated for 12 h at 37° C. in a CO2 incubator. After washing the membrane twice with PBS, 70% methyl alcohol in PBS was used for cell fixation. PBS washing was performed three times afterwards and hematoxylin (Sigma) was used for cell staining After washing the membrane with distilled water several times, non-migrant cells from the top were removed by using cotton swab. Then, the membranes were mounted with Gel Mount (Biomeda). For counting migrant cells, three randomly picked places were magnified with microscopes in high-power fields (×10, and ×20). All samples were performed in triplicate.
Here, the TGF-β1 treatment groups were treated at a concentration of 10 ng/ml for 12 hours.

EPRS (A549 cells) = assay: Immunoblotting of Snail1 and EMT-related markers after EPRS knock-down using siRNA; type: cell-based, human; settings: si-EPRS vs si-control, with or without 10 ng/ml TGF-β1 for 1 hour or 48 hours, cytoplasm and nucleus
Procedure: Human EPRS gene specific siRNA (si-EPRS) including a sense strand of SEQ ID NO: 23 and an antisense strand of SEQ ID NO: 24, and non-silencing control siRNA (si-control, Catalog Number: 4390843) were purchased from Invitrogen Silencer Select siRNAs products.
Cells were lysed with lysis buffer (20 mM Tris-HCl (pH 8.0) buffer containing 150 mM NaCl, 1% Triton X-100, 1 mM EDTA, 10% glycerol, and protease inhibitor) and collected in a 1.5 ml tube and incubated in 4° C. with gentle agitation for 15 minutes. Then, centrifuged at 15,000 rpm for 20 minutes in 4° C. and supernatants were collected and quantified by using Bradford reagent. After 5×SDS sample buffer was added, each sample were boiled in 100° C. for 5 minutes. Protein samples were separated by SDS-PAGE, transferred to nitrocellulose membrane, and immunoblotted with specific antibodies. The blots were then reacted with horseradish peroxidase-coupled anti-mouse and anti-rabbit (Pierce) IgG secondary antibody. Signals were developed with ECL-PLUS detection reagent (GE healthcare lifesciences).
The antibodies specific to the respective marker proteins, used in the present experiment, are as follows: StrepMAB classic-HRP (IBA), Monoclonal anti-FLAG M2-HRP (Sigma), anti-Snail1 (Cell signaling), anti-Slug (Cell signaling), anti-L13a (Cell signaling), anti-p-Smad2 (Cell signaling), anti-p-Smad3 (Cell signaling), anti-E-cadherin (Cell signaling), anti-N-cadherin (Cell signaling), anti-HDAC1 (Bio vision), anti-β-actin (SCBT), anti-Tubulin (Sigma), anti-HSP90 alpha/β (SCBT), anti-p84 (SCBT), and anti-HA (SCBT). The anti-EPRS antibody was prepared through a conventional procedure by which the EPRS protein represented by SEQ ID NO: 1 was injected into a New Zealand white rabbit to cause an immune response, thereby obtaining an antibody.
It was verified how the reduced EPRS affects Snail1 and EMT progress, through EPRS knock-down experiment using siRNA. For each experimental group, […] cells were treated with si-control or si-EPRS, and treated with or without 10 ng/ml of TGF-β1 for 1 hour or 48 hours. […]

Substance | binding between EPRS and Snail1 (endo-IP, Snail1 immunoblot) [1] | cell invasion (A549 cells [2]) | cell migration (A549 cells [3]) | E-cadherin protein level (immunoblot) (EPRS (A549 cells)) | Snail1 protein level (immunoblot) (EPRS (A549 cells)) | p-SMAD3 protein level (immunoblot) (EPRS (A549 cells))
TGF-β1: Growth factor purchased from R&D systems, used to induce EMT | the higher the concentration of TGF-β1, the stronger the binding between EPRS and Snail1 | – | – | – | – | –
si-EPRS: Human EPRS gene specific siRNA including a sense strand of SEQ ID NO: 23 and an antisense strand of SEQ ID NO: 24 (sense CGAUGUCAGCAUUUCCGUUTT; antisense AACGGAAAUGCUGACAUCGTC; chemistry not given here) | – | reduced | reduced | increased | reduced | reduced
